This passage reports Kd results from paper PMC10274570, “Preclinical characterization of WB737, a potent and selective STAT3 inhibitor, in natural killer/T‐cell lymphoma” (MedComm, 2023).

In experiment [1] the target is T1, signal transducer and activator of transcription 3 (STAT3) (Homo sapiens, UniProt P40763).
T1 construct: His-STAT3 127-722
Description: microscale thermophoresis with labeled purified His-STAT3 […]-722 (reference inhibitor). The class given is binding.

Experiment [2] deals with T1, signal transducer and activator of transcription 3 (STAT3). The experiment is described as follows: microscale thermophoresis with labeled purified His-STAT3 […]-722. Type of experiment: binding.

T1 sequence (P40763 127-722): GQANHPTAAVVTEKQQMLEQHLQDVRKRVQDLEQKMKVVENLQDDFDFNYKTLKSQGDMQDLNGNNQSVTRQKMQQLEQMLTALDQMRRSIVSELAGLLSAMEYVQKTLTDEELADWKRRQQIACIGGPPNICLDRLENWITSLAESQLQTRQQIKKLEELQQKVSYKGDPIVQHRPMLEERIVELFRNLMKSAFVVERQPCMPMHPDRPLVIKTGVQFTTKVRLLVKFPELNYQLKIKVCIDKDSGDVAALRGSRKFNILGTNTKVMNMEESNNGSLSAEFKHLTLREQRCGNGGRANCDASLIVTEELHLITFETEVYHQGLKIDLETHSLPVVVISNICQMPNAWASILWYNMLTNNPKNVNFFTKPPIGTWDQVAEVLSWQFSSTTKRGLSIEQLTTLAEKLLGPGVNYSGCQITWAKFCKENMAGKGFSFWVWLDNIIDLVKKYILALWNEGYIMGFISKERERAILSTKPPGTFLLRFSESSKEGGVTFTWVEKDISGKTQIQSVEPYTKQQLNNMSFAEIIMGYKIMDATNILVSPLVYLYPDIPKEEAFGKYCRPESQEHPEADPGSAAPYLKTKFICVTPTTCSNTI

In experiment [1], `O=[N+]([O-])c1ccc2c(c1)S(=O)(=O)C=C2` [Stattic] showed a Kd of 6.51 ± 0.82 µM.

In turn, WB737 returned a Kd in experiment [2] of 0.00134 ± 0.00019 µM.
